Measurements published in patent US20030086923A1, “Method for the prevention and/or treatment of atherosclerosis” (priority 1999, published 2003).

Legend:
[1] = target: T1, human GST-LXRβ ligand binding domain receptor (Homo sapiens, UniProt P55055); assay: Radioligand competition binding scintillation proximity assay, LXRβ
T1 construct: human LXRβ (amino acids 149-455) were subcloned into the pGEX-KT expression vector; made in house; host or cells: E. coli (pGEX-KT vector)
T1 sequence (P55055 149-455): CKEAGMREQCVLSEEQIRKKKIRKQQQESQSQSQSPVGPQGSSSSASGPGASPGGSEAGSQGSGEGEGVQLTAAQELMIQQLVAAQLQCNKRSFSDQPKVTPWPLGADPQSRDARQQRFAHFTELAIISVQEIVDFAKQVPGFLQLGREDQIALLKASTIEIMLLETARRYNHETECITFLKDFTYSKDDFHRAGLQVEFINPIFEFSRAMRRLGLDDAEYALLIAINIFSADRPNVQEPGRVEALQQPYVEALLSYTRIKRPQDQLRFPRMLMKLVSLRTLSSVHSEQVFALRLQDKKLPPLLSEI
Excerpt: (§1) Radioligand Competition Binding Scintillation Proximity Assays:
(§2) Preparation of Recombinant Human LXRα and LXRβ:
(§3) Human LXRα and LXRβ were expressed as GST-fusion proteins in E. coli. The ligand binding domain cDNAs for human LXRα (amino acids 164-447) and human LXRβ (amino acids 149-455) were subcloned into the pGEX-KT expression vector (Pharmacia). E. coli containing the respective plasmids were propagated, induced, and harvested by centrifugation. The resuspended pellet was broken in a French press and debris was removed by centrifugation. Recombinant human LXR receptors were purified by affinity chromatography on glutathione sepharose and receptor was eluted with glutathione. Glycerol was added to a final concentration of 50% to stabilize the receptor and aliquots were stored at −80° C.
(§4) After incubation for ˜16 h at 15° C. with shaking, the assay plates were counted in a Packard Topcount.

[2] = target: T2, human GST-LXRα receptor (Homo sapiens, UniProt Q13133); assay: Radioligand competition binding scintillation proximity assay, LXRα
T2 construct: made in house; host or cells: E. coli (pGEX-KT vector)
T2 sequence (Q13133 164-447): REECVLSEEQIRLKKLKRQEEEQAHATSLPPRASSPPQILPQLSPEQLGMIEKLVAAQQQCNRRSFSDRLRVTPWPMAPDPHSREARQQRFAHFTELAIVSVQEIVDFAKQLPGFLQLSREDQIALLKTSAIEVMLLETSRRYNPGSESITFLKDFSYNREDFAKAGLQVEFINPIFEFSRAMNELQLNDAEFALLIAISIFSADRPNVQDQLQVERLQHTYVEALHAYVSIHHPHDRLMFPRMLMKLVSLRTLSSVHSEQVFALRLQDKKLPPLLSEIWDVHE
Excerpt: as §1, §2, §3, §4

[3] = system: THP-1 macrophages; assay: Stimulation of cholesterol efflux from cultured THP-1 macrophages; assay type: cell-based, human; settings: for EC50: Homo sapiens, THP-1
Excerpt: Stimulation of Cholesterol Efflux from Cultured Cells
Patients with Tangier disease have mutations in the ABC1 gene and have very low HDL levels. Cultured cells from these patients are defective in cholesterol efflux (Francis et al. (1995) J. Clin. Invest. 96:78-87). Therefore, induction of ABC1 mRNA should lead to increased cholesterol efflux and increased HDL levels (Francis et al. (1999) Clinica Chimica Acta 286:219-230). TIIP-1 cells were used to determine whether induction of ABC1 mRNA by Compound 1 would increase cholesterol efflux. Specifically, cultured human THP-1 cells were stimulated to differentiate into macrophages by incubation with 100 nM tetradecanoyl phorbol acetate for three days, as described above. After differentiation, the TUP-1 macrophages were labeled with ^3H-cholesterol by incubation for 24 hours with 10 μCi/ml ^3H-cholesterol in Complete RPMI media containing 0.1% lipid-free bovine serum albumin (BSA) plus 100 nM tetradecanoyl phorbol acetate. After labeling, the cells were incubated for 24 hours in Complete RPMI media with 0.1% lipid-free bovine serum albumin (BSA) to allow for equilibration of cellular cholesterol pools. Cholesterol efflux was then measured over the following 24 hours by incubating the cells in Complete RPMI media containing 10 μg/ml of apoA-I as cholesterol acceptor, and either Compound 1 or DMSO as control.

[4] = system: LXR; assay: Activity on LXR (assay not specified)
[5] = HDL-raising activity in hamsters; assay type: in vivo, hamster; settings: oral gavage 10 mg per kg twice per day, seven days, p=0.01
Description: HDL-Raising Activity: Hamsters were given Compound 4 by oral gavage at 10 mg per kg body weight, twice per day, for seven days. Blood was then collected and serum HDL cholesterol measured.

[6] = target: T3, LXRβ-GAL4 fusion protein (Homo sapiens, UniProt P55055); assay: LXRβ/GAL4 transactivation assay in HEK-293 cells; assay type: cell-based; settings: 48 h
T3 construct: expressed in transfected cells; host or cells: HEK-293 (pcDNA3-LXRβ/GAL4)
T3 sequence (P55055 222-460 limits assumed): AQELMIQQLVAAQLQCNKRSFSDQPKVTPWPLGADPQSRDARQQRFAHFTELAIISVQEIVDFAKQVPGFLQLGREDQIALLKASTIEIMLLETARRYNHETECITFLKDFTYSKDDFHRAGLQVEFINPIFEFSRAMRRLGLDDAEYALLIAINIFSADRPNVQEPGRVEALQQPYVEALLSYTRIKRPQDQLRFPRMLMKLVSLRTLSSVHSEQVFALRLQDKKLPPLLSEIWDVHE
Description: (§5) Expression constructs were prepared by inserting the ligand binding domain (LBD) of human LXRα and LXRβ cDNAs adjacent to the yeast GAL4 transcription factor DNA binding domain (DBD) in the mammalian expression vector pcDNA3 to create pcDNA3-LXRα/GAL4 and pcDNA3-LXRβ/GAL4, respectively. The GAL4-responsive reporter construct, pUAS(5×)-tk-luc, contained 5 copies of the GAL4 response element placed adjacent to the thymidine kinase minimal promoter and the luciferase reporter gene. The transfection control vector, pEGFP-N1, contained the Green Fluorescence Protein (GFP) gene under the regulation of the cytomegalovirus promoter.
(§6) HEK-293 cells were seeded at 40,000 cells/well in 96 well plates in Dulbecco's modified Eagle medium (high glucose) containing 10% charcoal stripped fetal calf serum (FCS), 100 units/ml Penicillin G and 100 μg/ml Streptomycin sulfate at 37° C. in a humidified atmosphere of 5% CO2. After 24 h, transfections were performed with Lipofectamine (Gibco-BRL, Gaithersburg, Md.) according to the instructions of the manufacturer. […] Luciferase activity in cell extracts was determined using Luciferase Assay Buffer (Promega) in a ML3000 luminometer (Dynatech Laboratories). GFP expression was determined using the Tecan Spectrofluor Plus at excitation wavelength of 485 nm and emission at 535 nm. […]

[7] = target: T4, LXRα-GAL4 fusion protein (Homo sapiens, UniProt Q13133); assay: LXRα/GAL4 transactivation assay in HEK-293 cells; assay type: cell-based; settings: 48 h
T4 construct: expressed in transfected cells; host or cells: HEK-293 (pcDNA3-LXRα/GAL4)
T4 sequence (Q13133 209-447 limits assumed): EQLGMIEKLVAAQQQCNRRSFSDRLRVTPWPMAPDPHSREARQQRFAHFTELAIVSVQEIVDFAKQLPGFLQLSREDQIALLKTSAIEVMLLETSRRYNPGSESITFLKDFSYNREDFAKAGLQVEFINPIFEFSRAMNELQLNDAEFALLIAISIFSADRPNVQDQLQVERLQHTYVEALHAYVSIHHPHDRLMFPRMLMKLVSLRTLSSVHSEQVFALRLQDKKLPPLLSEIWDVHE
Description: as §5, §6

[8] = system: ABC1 mRNA; assay: Induction of ABC1 mRNA levels in THP-1 macrophages; assay type: cell-based; settings: Homo sapiens, ABC-1, 15 μM, 6 hours, vs DMSO control, read-out: Fold Induction of ABC1 mRNA (Mean ± SEM)
Description: Induction of ABC1 mRNA levels
Cultured human THP-1 cells were used. All cell culture incubations were performed at 37° C. under 95% air/5% carbon dioxide. Cells were grown in Complete RPMI medium plus 10% FCS (Fetal Calf Serum). Complete RPMI medium is defined as RPMI medium (Sigma Cat.# R8005) containing […], 1 mM Na Pyruvate, 2 mM L-Glutamine, and Antibiotic-Antimyotic Solution (Sigma Cat.# A9909: 100U/ml Penicillin, 0.1 mg/ml Streptomycin, 0.251l/ml Amphotericin B). Cells were differentiated into macrophages by incubation in Complete RPMI medium plus 10% FCS (Fetal Calf Serum) plus 100 nM tetradecanoyl phorbol acetate for three days. After differentiation, the THP-1 macrophages were incubated in Complete RPMI medium plus 10% FCS (Fetal Calf Serum) with the test LXR agonist. After 6 hours at 37° C., the cells were harvested and total RNA prepared using the phenol/guanidine isothiocyanate method as supplied and described by Molecular Research Center, Inc. (TRI REAGENTφ Cat. No. TR 118). ABC1 mRNA levels in the total RNA were measured using the TaqMan® mRNA quantitation system, following protocols published by the manufacturer (Perkin-Elmer). The oligonucleotide PCR primers used to detect ABC1 were:
The oligonucleotide probe used was:
ABC1 mRNA levels in each sample were normalized to the mRNA levels for the 23 kDa highly basic protein. […]

With CC(C)N(C(=O)[C@H]1CCC2C3CC=C4N(C)C(=O)CCC4(C)C3CCC21C)C(C)C (stereo partly shown) [Compound 3] the IC50 [1] was 442 nM, the IC50 [2] was 112 nM and the EC50 [3] was 120 nM.
With CC(C)CC[C@H](O)[C@@H](C)[C@H]1CC[C@H]2[C@@H]3CC=C4C[C@@H](O)CC[C@]4(C)[C@H]3CC[C@]12C [22-(S)-hydroxy-cholesterol, reference compound] the “Activity on LXR (in words)” value [4] was “inactive” and the “Stimulation of cholesterol efflux (in words)” value [3] was “did not stimulate cholesterol efflux at all”.
In the case of CCCc1c(OCCCN2C(=O)CCNC2=O)ccc2c(C(F)(F)F)noc12 [Compound 4, 4,5-Dihydro-1-(3-(3-trifluoromethyl-7-propyl-benzisoxazol-6-yloxy)propyl)-2,6-pyrimidinedione], the “Increase of serum HDL cholesterol levels vs vehicle control” value [5] is reported as 21%, the IC50 [1] is reported as 72 nM and the IC50 [2] is reported as 1 nM. It also gave an EC50 [3] of 63 nM, an EC50 [6] of 360 nM and an EC50 [7] of 183 nM.
With CC(C)CC[C@@H](O)[C@@H](C)[C@H]1CC[C@H]2[C@@H]3CC=C4C[C@@H](O)CC[C@]4(C)[C@H]3CC[C@]12C [Compound 2, 22(R)-hydroxycholesterol, reference compound] the fold induction at 15 µM [8] was 6.7 ± 1.2 and the “Stimulation of cholesterol efflux” value ([3]; 5 μM, p<0.001) was 57%.
